Biological target: T1, human TLR7 (Homo sapiens, UniProt Q9NYK1)
T1 sequence (Q9NYK1 27-1049): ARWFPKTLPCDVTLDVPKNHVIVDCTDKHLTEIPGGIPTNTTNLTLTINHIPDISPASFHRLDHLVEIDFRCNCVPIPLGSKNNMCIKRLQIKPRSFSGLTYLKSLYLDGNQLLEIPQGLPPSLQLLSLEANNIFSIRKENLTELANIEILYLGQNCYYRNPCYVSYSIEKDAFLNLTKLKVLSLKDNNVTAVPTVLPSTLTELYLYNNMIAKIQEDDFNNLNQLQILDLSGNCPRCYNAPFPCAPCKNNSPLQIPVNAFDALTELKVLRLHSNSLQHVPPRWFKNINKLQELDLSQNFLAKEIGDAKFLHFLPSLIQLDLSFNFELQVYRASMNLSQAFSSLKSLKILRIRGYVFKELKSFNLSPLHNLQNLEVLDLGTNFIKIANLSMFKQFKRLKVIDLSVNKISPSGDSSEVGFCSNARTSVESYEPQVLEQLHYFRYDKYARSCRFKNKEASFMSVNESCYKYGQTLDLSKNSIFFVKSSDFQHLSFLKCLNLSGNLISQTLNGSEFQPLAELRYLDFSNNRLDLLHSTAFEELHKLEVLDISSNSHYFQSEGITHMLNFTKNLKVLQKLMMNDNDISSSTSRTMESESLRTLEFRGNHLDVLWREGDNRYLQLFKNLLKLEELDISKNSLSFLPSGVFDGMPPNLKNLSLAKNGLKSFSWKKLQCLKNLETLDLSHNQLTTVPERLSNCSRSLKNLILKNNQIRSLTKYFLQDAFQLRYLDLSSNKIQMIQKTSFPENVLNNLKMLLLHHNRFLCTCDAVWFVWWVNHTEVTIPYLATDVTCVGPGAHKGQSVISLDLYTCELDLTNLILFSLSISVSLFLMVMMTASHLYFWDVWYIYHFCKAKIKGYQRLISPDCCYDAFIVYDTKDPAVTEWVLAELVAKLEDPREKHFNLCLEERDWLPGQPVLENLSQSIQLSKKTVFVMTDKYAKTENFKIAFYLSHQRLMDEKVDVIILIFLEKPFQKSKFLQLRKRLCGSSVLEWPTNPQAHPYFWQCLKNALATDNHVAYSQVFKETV
Assay: HEK293-Blue-hTLR-7 cells assay (SEAP reporter, R848 stimulation)
Assay type: cell-based
Conditions: HEK293-Blue-hTLR7 cells, R848 ligand, 20 hrs incubation
Source text: A stable HEK293-Blue-hTLR-7 cell line was purchased from InvivoGen (Cat. #: hkb-htlr7, San Diego, Calif., USA). These cells were originally designed for studying the stimulation of human TLR7 by monitoring the activation of NF-κB. A SEAP (secreted embryonic alkaline phosphatase) reporter gene was placed under the control of the IFN-β minimal promoter fused to five NF-κB and AP-1-binding sites. The SEAP was induced by activating NF-κB and AP-1 via stimulating HEK-Blue hTLR7 cells with TLR7 ligands. Therefore the reporter expression was declined by TLR7 antagonist under the stimulation of a ligand, such as R848 (Resiquimod), for incubation of 20 hrs. The cell culture supernatant SEAP reporter activity was determined using QUANTI-Blue™ kit (Cat. #: rep-qb1, Invivogen, San Diego, Ca, USA) at a wavelength of 640 nm, a detection medium that turns purple or blue in the presence of alkaline phosphatase.
HEK293-Blue-hTLR7 cells were incubated at a density of 250,000˜450,000 cells/mL in a volume of 170 μL in a 96-well plate in Dulbecco's Modified Eagle's medium (DMEM) containing 4.5 g/L glucose, 50 U/mL penicillin, […], […], 2 mM L-glutamine, 10% (v/v) heat-inactivated fetal bovine serum with addition of 20 μL test compound in a serial dilution in the presence of final DMSO at 1% and 10 μL of 20 uM R848 in above DMEM, perform incubation under 37° C. in a CO2 incubator for 20 hrs. Then 20 μL of the supernatant from each well was incubated with 180 μL Quanti-blue substrate solution at 37° C. for 2 hrs and the absorbance was read at 620˜655 nm using a spectrophotometer. The signalling pathway that TLR7 activation leads to downstream NF-κB activation has been widely accepted, and therefore similar reporter assay was modified for evaluating TLR7 antagonist.

Compound | IC50 [nM]
C[C@@H]1CN(c2ccc(C#N)n3nccc23)C[C@H](CN2C[C@H]3CC[C@@H](N(C)C)[C@H]3C2)O1 (racemic) [Example 75, 4-[(2S,6R)-2-[[4-(dimethylamino)-3,3a,4,5,6,6a-hexahydro-1H-cyclopenta[c]pyrrol-2-yl]methyl]-6-methyl-morpholin-4-yl]pyrazolo[1,5-a]pyridine-7-carbonitrile] | 680
CC1CNCCN1C[C@H]1CN(c2ccc(C#N)n3nccc23)C[C@@H](C)O1 (single isomer, unassigned) [Example 50A] | 230
CC1CNCCN1C[C@H]1CN(c2ccc(C#N)n3nccc23)C[C@@H](C)O1 (single isomer, unassigned) [Example 50B] | 140
C[C@@H]1CN(c2ccc(C#N)n3nccc23)C[C@H](CN2CCC(N3CCN(C)CC3)CC2)O1 [Example 1, 4-[(2R,6S)-2-methyl-6-[[4-(4-methylpiperazin-1-yl)-1-piperidyl]methyl]morpholin-4-yl]pyrazolo[1,5-a]pyridine-7-carbonitrile] | 95
C[C@@H]1CN(c2ccc(C#N)n3nccc23)C[C@H](CN2CCC3(CCNCC3)CC2)O1 [Example 3, 4-[(2S,6R)-2-(3,9-diazaspiro[5.5]undecan-3-ylmethyl)-6-methyl-morpholin-4-yl]pyrazolo[1,5-a]pyridine-7-carbonitrile] | 240
C[C@@H]1CN(c2ccc(C#N)n3nccc23)C[C@H](CN2CCC(N3CCCCCC3)CC2)O1 [Example 4, 4-[(2S,6R)-2-[[4-(azepan-1-yl)-1-piperidyl]methyl]-6-methyl-morpholin-4-yl]pyrazolo[1,5-a]pyridine-7-carbonitrile] | 180
C[C@@H]1CN(c2ccc(C#N)n3nccc23)C[C@H](CN2CCNCC2)O1 [Example 5, 4-[(2R,6S)-2-methyl-6-(piperazin-1-ylmethyl)morpholin-4-yl]pyrazolo[1,5-a]pyridine-7-carbonitrile] | 54
C[C@@H]1CN(c2ccc(C#N)n3nccc23)C[C@H](CN2CCC3(CCNC3)C2)O1 (stereo partly drawn) [Example 6, 4-[(2S,6R)-2-(2,7-diazaspiro[4.4]nonan-2-ylmethyl)-6-methyl-morpholin-4-yl]pyrazolo[1,5-a]pyridine-7-carbonitrile] | 200
C[C@@H]1CN(c2ccc(C#N)n3nccc23)C[C@H](CNC2CCN(C)CC2)O1 [Example 7, 4-[(2R,6S)-2-methyl-6-[[(1-methyl-4-piperidyl)amino]methyl]morpholin-4-yl]pyrazolo[1,5-a]pyridine-7-carbonitrile] | 260
C[C@@H]1CN(c2ccc(C#N)n3nccc23)C[C@H](CN2CC3(CCCNC3)C2)O1 [Example 10, 4-[(2S,6R)-2-(2,8-diazaspiro[3.5]nonan-2-ylmethyl)-6-methyl-morpholin-4-yl]pyrazolo[1,5-a]pyridine-7-carbonitrile] | 83
C[C@@H]1CN(c2ccc(C#N)n3nccc23)C[C@H](CN2CC3(CC(N)C3)C2)O1 [Example 11, 4-[(2S,6R)-2-[(6-amino-2-azaspiro[3.3]heptan-2-yl)methyl]-6-methyl-morpholin-4-yl]pyrazolo[1,5-a]pyridine-7-carbonitrile] | 160
C[C@@H]1CN(c2ccc(C#N)n3nccc23)C[C@H](CN2CCC(CN)CC2)O1 [Example 12, 4-[(2S,6R)-2-[[4-(aminomethyl)-1-piperidyl]methyl]-6-methyl-morpholin-4-yl]pyrazolo[1,5-a]pyridine-7-carbonitrile] | 240
C[C@@H]1CN(c2ccc(C#N)n3nccc23)C[C@H](CN2CCC(CCN)CC2)O1 [Example 13, 4-[(2S,6R)-2-[[4-(2-aminoethyl)-1-piperidyl]methyl]-6-methyl-morpholin-4-yl]pyrazolo[1,5-a]pyridine-7-carbonitrile] | 400
C[C@@H]1CN(c2ccc(C#N)n3nccc23)C[C@H](CN2CCN(C(=O)CN)CC2)O1 [Example 14, 4-[(2S,6R)-2-[[4-(2-aminoacetyl)piperazin-1-yl]methyl]-6-methyl-morpholin-4-yl]pyrazolo[1,5-a]pyridine-7-carbonitrile] | 460
C[C@@H]1CN(c2ccc(C#N)n3nccc23)C[C@H](CN2CCN(C)CC2)O1 [Example 15, 4-[(2R,6S)-2-methyl-6-[(4-methylpiperazin-1-yl)methyl]morpholin-4-yl]pyrazolo[1,5-a]pyridine-7-carbonitrile] | 77
C[C@@H]1CN(c2ccc(C#N)n3nccc23)C[C@H](CN2CCC(N3CCCCC3)CC2)O1 [Example 16, 4-[(2R,6S)-2-methyl-6-[[4-(1-piperidyl)-1-piperidyl]methyl]morpholin-4-yl]pyrazolo[1,5-a]pyridine-7-carbonitrile] | 100
C[C@@H]1CN(c2ccc(C#N)n3nccc23)C[C@H](CN2CCC(N)CC2)O1 [Example 17, 4-[(2S,6R)-2-[(4-amino-1-piperidyl)methyl]-6-methyl-morpholin-4-yl]pyrazolo[1,5-a]pyridine-7-carbonitrile] | 89
C[C@@H]1CN(c2ccc(C#N)n3nccc23)C[C@H](CN2CCC3(CCNCC3)C2)O1 [Example 18, 4-[(2S,6R)-2-(2,8-diazaspiro[4.5]decan-2-ylmethyl)-6-methyl-morpholin-4-yl]pyrazolo[1,5-a]pyridine-7-carbonitrile] | 200
C[C@@H]1CN(c2ccc(C#N)n3nccc23)C[C@H](CN2CCC3(CCNC3)CC2)O1 [Example 19, 4-[(2S,6R)-2-(2,8-diazaspiro[4.5]decan-8-ylmethyl)-6-methyl-morpholin-4-yl]pyrazolo[1,5-a]pyridine-7-carbonitrile] | 130
C[C@@H]1CN(c2ccc(C#N)n3nccc23)C[C@H](CN2CC3(CCNC3)CC2=O)O1 (stereo partly drawn) [Example 20, 4-[(2R,6R)-2-methyl-6-[(3-oxo-2,7-diazaspiro[4.4]nonan-2-yl)methyl]morpholin-4-yl]pyrazolo[1,5-a]pyridine-7-carbonitrile] | 650
C[C@@H]1CN(c2ccc(C#N)n3nccc23)C[C@H](CN2CCC3(CCNC3)C2=O)O1 (stereo partly drawn) [Example 21, 4-[(2R,6R)-2-methyl-6-[(1-oxo-2,7-diazaspiro[4.4]nonan-2-yl)methyl]morpholin-4-yl]pyrazolo[1,5-a]pyridine-7-carbonitrile] | 98
C[C@@H]1CN(c2ccc(C#N)n3nccc23)C[C@H](CN2CC3CNCC3C2)O1 (stereo partly drawn) [Example 22, 4-[(2S,6R)-2-(2,3,3a,4,6,6a-hexahydro-1H-pyrrolo[3,4-c]pyrrol-5-ylmethyl)-6-methyl-morpholin-4-yl]pyrazolo[1,5-a]pyridine-7-carbonitrile] | 100
C[C@@H]1CN(c2ccc(C#N)n3nccc23)C[C@H](CN2CCCC3(CCCNC3)C2)O1 (stereo partly drawn) [Example 23, 4-[(2S,6R)-2-(2,8-diazaspiro[5.5]undecan-2-ylmethyl)-6-methyl-morpholin-4-yl]pyrazolo[1,5-a]pyridine-7-carbonitrile] | 180
C[C@@H]1CN(c2ccc(C#N)n3nccc23)C[C@H](CN2CC3(CCNCC3)C2)O1 [Example 24, 4-[(2S,6R)-2-(2,7-diazaspiro[3.5]nonan-2-ylmethyl)-6-methyl-morpholin-4-yl]pyrazolo[1,5-a]pyridine-7-carbonitrile] | 100
C[C@@H]1CN(c2ccc(C#N)n3nccc23)C[C@H](CN2CCC3(CCCNC3)C2)O1 (stereo partly drawn) [Example 25, 4-[(2S,6R)-2-(2,9-diazaspiro[4.5]decan-2-ylmethyl)-6-methyl-morpholin-4-yl]pyrazolo[1,5-a]pyridine-7-carbonitrile] | 110
